# What was measured:
# human tissue kallikrein = human tissue kallikrein (Homo sapiens (Human), UniProt P06870); experiment: Inhibition of tissue kallikrein enzymatic activity (tKal); type: biochemical; conditions: human tissue kallikrein 5 nM, N-acetyl-KPR-AFC substrate, 25° C.
# Method: Compounds were assayed with human tissue kallikrein (RayBiotech, Cat #228-10996 or Evotec, final concentration 5 nM) in 50 mM HEPES, 150 mM NaCl, 5 mM CaCl2, 0.1% PEG pH 7.4 at 25° C. in a Corning 3575 non-binding surface microplate. Compounds were tested in 10-point dose titrations starting at 166.67 uM with a 3-fold dilution series. Tissue kallikrein enzymatic activity was determined by measuring the rate of cleavage of N-acetyl-KPR-AFC substrate (Sigma, Cat #C6608, final concentration 100 uM) by continuously monitoring the fluorescence at 400/505 nm using a Tecan Safire plate-reader. The initial reaction rates (0 to 20 minutes) were used to determine percent inhibition. The % Inhibition for each data point was recalculated from the RFU/min data and analyzed using the log(inhibitor) vs. response four parameters equation with the GraphPad Prism software.
# [1] = target: Human Norepinephrine Transporter (NET) (Homo sapiens (Human), UniProt P23975); experiment: Norepinephrine Transporter functional antagonist uptake assay; type: cell-based; conditions: [3H]Norepinephrine uptake, MDCK cells expressing human recombinant NET
# Sequence of Human Norepinephrine Transporter (NET) (P23975 whole entry): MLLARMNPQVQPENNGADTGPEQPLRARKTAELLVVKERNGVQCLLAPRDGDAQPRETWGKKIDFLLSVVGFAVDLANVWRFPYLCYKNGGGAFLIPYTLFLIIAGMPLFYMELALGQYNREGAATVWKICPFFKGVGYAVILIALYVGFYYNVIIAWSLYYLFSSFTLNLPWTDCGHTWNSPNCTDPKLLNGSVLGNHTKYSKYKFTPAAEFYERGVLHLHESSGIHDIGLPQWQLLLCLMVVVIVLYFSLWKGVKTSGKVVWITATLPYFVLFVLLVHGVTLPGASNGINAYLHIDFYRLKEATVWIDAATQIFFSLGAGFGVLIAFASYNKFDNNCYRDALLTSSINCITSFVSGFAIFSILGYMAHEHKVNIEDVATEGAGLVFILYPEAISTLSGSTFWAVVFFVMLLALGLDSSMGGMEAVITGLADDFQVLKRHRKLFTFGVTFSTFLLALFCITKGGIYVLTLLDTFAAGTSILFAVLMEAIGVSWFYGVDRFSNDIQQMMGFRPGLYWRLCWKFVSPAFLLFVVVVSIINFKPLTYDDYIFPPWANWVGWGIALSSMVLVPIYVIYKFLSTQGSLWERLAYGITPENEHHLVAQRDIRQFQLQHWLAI
# Method: Human Norepinephrine Transporter (NET) Functional Antagonist Uptake Assay was carried out at Panlabs Cerep (assay #302100). Human recombinant norepinephrine transporter expressed in MDCK cells were plated overnight. Test compound and/or vehicle was pre-incubated with cells (2×10E5/ml) in modified Tris-HEPES buffer pH 7.1 for 20 minutes at 25° C. and 25 nM [3H]Norepinephrine was then added for an additional 15 minute incubation period. A lysate was obtained from solubilized cells and counted to determine [3H]Norepinephrine uptake. Reduction of [3H]Norepinephrine uptake by 50 percent or more (≥50%) relative to 10 μM desipramine indicates significant inhibitory activity. Compounds are screened at 10, 3, 1, 0.3, 0.1, 0.03, 0.01 and 0.003 μM. These same concentrations are concurrently applied to a separate group of untreated cells and evaluated for possible compound-induced cytotoxicity only if significant inhibition of uptake is observed. IC50 values were determined by a non-linear, least squares regression analysis using MathIQ™ (IDBusiness Solutions Ltd., UK).
# [2] = Dog screening IV/PO pharmacokinetics; type: in vivo; conditions: male, plasma, mean residence time, IV/PO procedure
# Method: Plasma pharmacokinetic parameters for clearance, volume of distribution, half-life, mean residence time (MRT) and oral bioavailability were determined in dogs from oral administration and IV administration studies. 4 male dogs, typically weighing 8-12 kilograms, were fasted overnight prior to dosing. Compounds were prepared for oral and IV dosing by addition to a vehicle, depending on the dose used. For a typical preparation, 1 mg per mL (IV) or 1.5 mg per mL (oral) of test compound was added to vehicle comprised of 20% dimethyl sulfoxide (DMSO), 60% polyethylene glycol 400 (PEG400) and 20% water. IV formulation was administered to 2 dogs via the saphenous or cephalic vein, and oral dosing was administered to 2 dogs via oral gavage. Blood was collected by the cephalic or jugular vein, typically at predose, 2 min, 8 min, 15 min, 30 min, and 1, 2, 4, 6, 8 and 24 hr postdose for IV, and at predose, 15 min, 30 min, and 1, 2, 4, 6, 8, and 24 hr for oral dosing. Samples were collected in K2EDTA tubes, stored on ice, and centrifuged. Plasma was transferred to a micro titer plate and stored at −70° C. until analysis. Plasma samples were extracted using protein precipitation and analyzed by liquid chromatography separation followed by mass spec detection (LCMS/MS), using a standard curve for each compound. Plasma pharmacokinetic parameters were calculated for IV and oral dosing data by non-compartmental methods. Oral bioavailability was determined as the ratio of the dose-normalized plasma area under the curve (AUC) following oral dosing vs. IV dosing.
# [3] = Dog cassette IV pharmacokinetics; type: in vivo; conditions: male, plasma, mean residence time, cassette IV procedure
# Method: Plasma pharmacokinetic parameters for clearance, volume of distribution, half-life, and mean residence time (MRT) were determined in dogs from IV cassette administration studies. 2 male dogs, typically weighing 8-12 kilograms, were fasted overnight prior to dosing. Compounds were prepared for IV dosing by addition to a vehicle, depending on the dose used. For a typical preparation, 1 mg per mL (IV) of up to 5 test compounds were added to vehicle comprised of 20% dimethyl sulfoxide (DMSO), 60% polyethylene glycol 400 (PEG400) and 20% water. IV formulation was administered to 2 dogs via the saphenous or cephalic vein. Blood was collected by the cephalic or jugular vein, typically at predose, 2, 8, 15, 30 min, 1, 2, 4, 6, 8 and 24 hr postdose. Samples were collected in K2EDTA tubes, stored on ice, and centrifuged. Plasma was transferred to a micro titer plate and stored at −70° C. until analysis. Plasma samples were extracted using protein precipitation and analyzed by liquid chromatography separation followed by mass spec detection (LCMS/MS), using a standard curve for each compound. Plasma pharmacokinetic parameters were calculated by non-compartmental methods.
# Sequence of human tissue kallikrein (P06870 25-262): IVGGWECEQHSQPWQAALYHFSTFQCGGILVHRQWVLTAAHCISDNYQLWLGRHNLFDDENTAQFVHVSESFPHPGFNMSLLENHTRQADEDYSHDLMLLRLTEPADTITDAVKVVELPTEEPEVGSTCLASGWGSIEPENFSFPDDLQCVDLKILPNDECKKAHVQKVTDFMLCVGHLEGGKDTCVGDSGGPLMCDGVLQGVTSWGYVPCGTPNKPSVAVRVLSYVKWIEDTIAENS
Compound,IC50 (human tissue kallikrein),IC50 [1],MRT [2],MRT [3]
"COC(=O)Nc1ccc2c(c1)NC(=O)C(C)(C)CCC[C@H](c1ccc(-c3c(-n4cc(C(F)(F)F)cn4)ccc(F)c3F)c[n+]1[O-])c1nc-2c(C)[nH]1 [Example 1, (R,Z)-5-(2,3-difluoro-6-(4-(trifluoromethyl)-1H-pyrazol-1-yl)phenyl)-2-(2^4-((methoxycarbonyl)amino)-1^5,5,5-trimethyl-4-oxo-1^1H-3-aza-1(4,2)-imidazola-2 (1,2)-benzenacyclononaphane-9-yl)pyridine 1-oxide]",> 167 µM,> 10 µM,10 h,–
"COC(=O)Nc1ccc2c(c1)NC(=O)C(C)(C)CCC[C@H](c1ccc(-c3cc(F)ccc3-n3cc(C(F)(F)F)cn3)c[n+]1[O-])c1nc-2c(C)[nH]1 [Example 2, (R.Z)-5-(5-fluoro-2-(4-(trifluoromethyl)-1H-pyrazol-1-yl)phenyl)-2-(2^4-((methoxycarbonyl)amino)-1^5,5,5-trimethyl-4-oxo-1^1H-3-aza-1(4,2)-imidazola-2(1,2)-benzenacyclononaphane-9-yl)pyridine 1-oxide]",90 µM,> 10 µM,11 h,–
COC(=O)Nc1ccc2c(c1)NC(=O)C(C)(C)CCC[C@H](c1ccc(-c3cc(Cl)ccc3-n3cc(C(F)(F)F)cn3)c[n+]1[O-])c1nc-2c(C)[nH]1 [Example 3],> 167 µM,> 10 µM,–,10 h
"COC(=O)Nc1ccc2c(c1)NC(=O)C(C)(C)CCC[C@H](c1ccc(-c3cc(Cl)ccc3-n3cc(C(F)F)cn3)c[n+]1[O-])c1nc-2c(C)[nH]1 [Example 4, (R,Z)-5-(5-chloro-2-(4-(difluoromethyl)-1H-pyrazol-1-yl)phenyl)-2-(2^4-((methoxycarbonyl)amino)-1^5,5,5-trimethyl-4-oxo-1^1H-3-aza-1(4,2)-imidazola-2(1,2)-benzenacyclononaphane-9-yl)pyridine 1-oxide]",> 167 µM,6.5 µM,8.7 h,–
"COC(=O)Nc1ccc2c(c1)NC(=O)C(C)(C)CCC[C@H](c1ccc(-c3cc(F)ccc3-c3cnn(C(F)(F)F)c3)c[n+]1[O-])c1nc-2c(C)[nH]1 [Example 5, (R,Z)-5-(5-fluoro-2-(1-(trifluoromethyl)-1H-pyrazol-4-yl)phenyl)-2-(2^4-((methoxycarbonyl)amino)-1^5,5,5-trimethyl-4-oxo-1^1H-3-aza-1(4,2)-imidazola-2(1,2)-benzenacyclononaphane-9-yl)pyridine 1-oxide]",> 167 µM,> 10 µM,10 h,–
"COC(=O)Nc1ccc2c(c1)NC(=O)C(C)(C)CCC[C@H](c1ccc(-c3cc(Cl)cnc3OC(F)F)c[n+]1[O-])c1nc-2c(C)[nH]1 [Example 6, (R,Z)-5′-chloro-2′-(difluoromethoxy)-6-(2^4-((methoxycarbonyl)amino)-1^5,5,5-trimethyl-4-oxo-1^1H-3-aza-1(4,2)-imidazola-2(1,2)-benzenacyclononaphane-9-yl)-[3,3′-bipyridine]1-oxide]",–,0.18 µM,14.5 h,–

# Source: patent US12344616B2, “Factor XIa inhibitors” (Merck Sharp & Dohme LLC, priority 2018, dated 2025)
